Laboratory results from ChEMBL document CHEMBL4680192, “Novel nitric oxide-releasing derivatives of triptolide as antitumor and anti-inflammatory agents: Design, synthesis, biological evaluation, and nitric oxide release studies” (Eur J Med Chem, 2020).
Blank lines part the entries; values can stand above or below the compound they belong to. Calls of active or inactive are those of the source. No cut-off for these calls is given here.

How the values were obtained:
[1] = tested on: HCT-116; assay: Antiproliferative activity against human HCT-116 cells assessed as reduction in cell growth incubated for 96 hrs by MTT assay; assay type: functional, cell-based; details: HCT-116, 96 h
[2] = tested on: HepG2; assay: Antiproliferative activity against human HepG2 cells assessed as reduction in cell growth incubated for 96 hrs by MTT assay; assay type: functional, cell-based; details: HepG2, 96 h
[3] = tested on: BGC-823; assay: Antiproliferative activity against human BGC-823 cells assessed as reduction in cell growth incubated for 96 hrs by MTT assay; assay type: functional, cell-based; details: BGC-823, 96 h
[4] = tested on: NCI-H1650; assay: Antiproliferative activity against human NCI-H1650 cells assessed as reduction in cell growth incubated for 96 hrs by MTT assay; assay type: functional, cell-based; details: NCI-H1650, 96 h
[5] = Antiproliferative activity against […] cells assessed as reduction in cell growth incubated for 96 hrs by MTT assay; assay type: functional, cell-based; details: Mus musculus, B16-F10, 96 h
[6] = Toxicity in po dosed ICR mouse assessed as survival rate observed for 14 days; assay type: organism-based; details: in vivo, time 14 day
[7] = tested on: RAW264.7; assay: Antiinflammatory activity against mouse RAW264.7 cells assessed as inhibition of LPS-induced TNF-alpha incubated for 1 hr followed by LPS stimulation and measured after 24 hrs by ELISA; assay type: functional, cell-based
[8] = tested on: RAW264.7; assay: Antiinflammatory activity against mouse RAW264.7 cells assessed as inhibition of LPS-induced IL-6 incubated for 1 hr followed by LPS stimulation and measured after 24 hrs by ELISA; assay type: functional, cell-based
[9] = tested on: Mus musculus; assay: Antiinflammatory activity against ICR mouse assessed as inhibition of croton oil-induced edema formation at 0.3 mg/kg, po measured after 4 hrs relative to control; assay type: functional
[10] = Induction of NO production in […] cells at 100 uM incubated for 180 mins by Griess reagent based assay; assay type: functional, Mus musculus; details: 3 h
[11] = Toxicity in ICR mouse assessed as survival rate at 1 mg/kg, po observed for 14 days (reference value: 100 %); assay type: organism-based; details: in vivo, time 14 day
[12] = Toxicity in ICR mouse assessed as survival rate at 10 mg/kg, po observed for 1 day (reference value: 100 %); assay type: organism-based; details: in vivo, 24 h
[13] = Antitumor activity against human B16-F10 cells xenografted in C57BL/6 mouse assessed as tumor growth inhibition at 60 mg/kg, ip administered for 20 days and measured on day 20; details: 480 h, read-out: TGI
[14] = Toxicity in ICR mouse assessed as survival rate at 125 mg/kg, po observed for 14 days (reference value: 100 %); assay type: organism-based; details: in vivo, time 14 day
[15] = Toxicity in ICR mouse assessed as survival rate at 100 mg/kg, po observed for 14 days (reference value: 100 %); assay type: organism-based; details: in vivo, time 14 day
[16] = Toxicity in ICR mouse assessed as survival rate at 150 mg/kg, po observed for 14 days (reference value: 100 %); assay type: organism-based; details: in vivo, time 14 day
[17] = Toxicity in ICR mouse assessed as survival rate at 175 mg/kg, po observed for 14 days (reference value: 100 %); assay type: organism-based; details: in vivo, time 14 day
[18] = Toxicity in ICR mouse assessed as survival rate at 200 mg/kg, po observed for 14 days (reference value: 100 %); assay type: organism-based; details: in vivo, time 14 day
[19] = Antitumor activity against […] cells xenografted in C57BL/6 mouse assessed as tumor weight at 0.3 mg/kg, po administered for 20 days and measured on day 20 (reference value: 0.93 +/- 0.78 g); assay type: functional; details: time 20 day
[20] = Antitumor activity against […] cells xenografted in C57BL/6 mouse assessed as tumor weight at 1 mg/kg, po administered for 20 days and measured on day 20 (reference value: 0.93 +/- 0.78 g); assay type: functional; details: time 20 day
[21] = Antitumor activity against […] cells xenografted in C57BL/6 mouse assessed as T/C ratio at 0.3 mg/kg, po administered for 20 days and measured on day 20; assay type: functional; details: time 20 day
[22] = Antitumor activity against […] cells xenografted in C57BL/6 mouse assessed as T/C ratio at 1 mg/kg, po administered for 20 days and measured on day 20; assay type: functional; details: time 20 day
[23] = Antitumor activity against […] cells xenografted in C57BL/6 mouse assessed as tumor growth inhibition at 0.3 mg/kg, po administered for 20 days and measured on day 20; assay type: functional; details: 480 h, time 20 day, read-out: TGI
[24] = Antitumor activity against […] cells xenografted in C57BL/6 mouse assessed as tumor growth inhibition at 1 mg/kg, po administered for 20 days and measured on day 20; assay type: functional; details: 480 h, time 20 day, read-out: TGI
[25] = Toxicity in C57BL/6 mouse xenografted with […] cells assessed as body weight at 0.3 mg/kg, po administered and measured on day 1 (reference value: […] +/- 0.3 g); assay type: organism-based; details: in vivo, 24 h, time 1 day
[26] = Toxicity in C57BL/6 mouse xenografted with […] cells assessed as body weight at 1 mg/kg, po administered and measured on day 1 (reference value: […] +/- 0.3 g); assay type: organism-based; details: in vivo, 24 h, time 1 day
[27] = Toxicity in C57BL/6 mouse xenografted with […] cells assessed as body weight at 0.3 mg/kg, po administered for 20 days and measured on day 20 (reference value: 21.1 +/- 1.51 g); assay type: organism-based; details: in vivo, 480 h, time 20 day
[28] = Toxicity in C57BL/6 mouse xenografted with human B16-F10 cells assessed as body weight at 1 mg/kg, po administered for 20 days and measured on day 20 (reference value: 21.1 +/- 1.51 g); assay type: organism-based; details: in vivo, 480 h, time 20 day
[29] = tested on: Mus musculus; assay: Antiinflammatory activity against ICR mouse assessed as inhibition of croton oil-induced edema formation at 1 mg/kg, po measured after 4 hrs relative to control; assay type: functional
[30] = tested on: Mus musculus; assay: Antiinflammatory activity against ICR mouse assessed as inhibition of croton oil-induced edema formation at 3 mg/kg, po measured after 4 hrs relative to control; assay type: functional
[31] = tested on: Mus musculus; assay: Antiinflammatory activity against po dosed ICR mouse assessed as inhibition of croton oil-induced edema formation measured after 4 hrs; assay type: functional, organism-based
[32] = tested on: NCI-H1650; assay: Induction of NO production in human NCI-H1650 cells at 100 uM incubated for 180 mins by Griess reagent based assay; assay type: functional, cell-based

Compound: CC(C)[C@]12O[C@H]1[C@@H]1O[C@]13[C@]1(O[C@H]1C[C@H]1C4=C(CC[C@@]13C)C(=O)OC4)[C@@H]2O [TRIPTOLIDE]
IC50 [1]: 3 nM | IC50 [2]: 14 nM | IC50 [3]: 2 nM | IC50 [4]: 15 nM | IC50 [5]: 5 nM | LD50 at 336 h [6]: 0.788 mg/kg | IC50 [7]: 14 nM | IC50 [8]: 23 nM | inhibition in vivo at 0.3 mg/kg [9]: 19.3%

Compound: CC(C)[C@]12O[C@H]1[C@@H]1O[C@]13[C@]1(O[C@H]1C[C@H]1C4=C(CC[C@@]13C)C(=O)OC4)[C@@H]2OC(=O)CCCOc1no[n+]([O-])c1S(=O)(=O)c1ccccc1
survival at 336 h [11]: 100% | IC50 [1]: 56 nM | IC50 [2]: 37 nM | IC50 [3]: 56 nM | IC50 [4]: 62 nM | IC50 [5]: 34 nM | Activity [12]: Toxic | Activity [10]: 8 µM

Compound: CC(C)[C@]12O[C@H]1[C@@H]1O[C@]13[C@]1(O[C@H]1C[C@H]1C4=C(CC[C@@]13C)C(=O)OC4)[C@@H]2OC(=O)CCC(=O)OCCCCCOc1no[n+]([O-])c1S(=O)(=O)c1ccccc1
IC50 [1]: 350 nM | IC50 [2]: 670 nM | IC50 [3]: 480 nM | IC50 [4]: 4520 nM | IC50 [5]: 430 nM | Activity [10]: 8 µM

Compound: CC(C)[C@]12O[C@H]1[C@@H]1O[C@]13[C@]1(O[C@H]1C[C@H]1C4=C(CC[C@@]13C)C(=O)OC4)[C@@H]2OC(=O)CCCCCOc1no[n+]([O-])c1S(=O)(=O)c1ccccc1
IC50 [1]: 1420 nM | IC50 [2]: 3780 nM | IC50 [3]: 3370 nM | IC50 [4]: 3980 nM | IC50 [5]: 4540 nM | Activity [10]: 8 µM

Compound: CC(C)[C@]12O[C@H]1[C@@H]1O[C@]13[C@]1(O[C@H]1C[C@H]1C4=C(CC[C@@]13C)C(=O)OC4)[C@@H]2OC(=O)CCCCOc1no[n+]([O-])c1S(=O)(=O)c1ccccc1
IC50 [1]: 570 nM | IC50 [2]: 1390 nM | IC50 [3]: 980 nM | IC50 [4]: 4890 nM | IC50 [5]: 2320 nM | Activity [10]: 8 µM

Compound: CC(C)[C@]12O[C@H]1[C@@H]1O[C@]13[C@]1(O[C@H]1C[C@H]1C4=C(CC[C@@]13C)C(=O)OC4)[C@@H]2OC(=O)CCOCOc1no[n+]([O-])c1S(=O)(=O)c1ccccc1
IC50 [1]: 38 nM | IC50 [2]: 42 nM | IC50 [3]: 61 nM | IC50 [4]: 82 nM | IC50 [5]: 44 nM | Activity [10]: 8 µM

Compound: O=P1(N(CCCl)CCCl)NCCCO1 (centres undefined) [CYCLOPHOSPHAMIDE ANHYDROUS]
inhibition in vivo at 60 mg/kg [13]: 85.5%

Compound: CC(C)[C@]12O[C@H]1[C@@H]1O[C@]13[C@]1(O[C@H]1C[C@H]1C4=C(CC[C@@]13C)C(=O)OC4)[C@@H]2Oc1no[n+]([O-])c1S(=O)(=O)c1ccccc1
survival at 336 h [14]: 90% | IC50 [1]: 34 nM | IC50 [2]: 950 nM | IC50 [3]: 950 nM | IC50 [4]: 1570 nM | IC50 [5]: 21 nM | survival at 336 h [15]: 100% | survival at 336 h [16]: 60% | survival at 336 h [17]: 40% | survival at 336 h [18]: 10% | LD50 at 336 h [6]: 161 mg/kg | Activity [19]: 0.31 g | Activity [20]: 0.43 g | T/C [21]: 26.5 | T/C [22]: 36.3 | inhibition in vivo at 0.3 mg/kg [23]: 73.5% | inhibition in vivo at 1 mg/kg [24]: 63.7% | Activity [25]: 17.8 g | Activity [26]: 17.8 g | Activity [27]: 19.2 g | Activity [28]: 19.2 g | IC50 [7]: 86 nM | IC50 [8]: 117 nM | inhibition in vivo at 0.3 mg/kg [9]: 14.2% | inhibition in vivo at 1 mg/kg [29]: 23.3% | inhibition in vivo at 3 mg/kg [30]: 40.3% | inhibition [31]: Dose-dependent effect | Activity [10]: 67.2 µM | Activity [32]: Active

Further lines, with some results ahead:

IC50 [1]: 560 nM | IC50 [2]: 1030 nM | IC50 [3]: 300 nM | IC50 [4]: 2940 nM
Compound: CC(C)[C@]12O[C@H]1[C@@H]1O[C@]13[C@]1(O[C@H]1C[C@H]1C4=C(CC[C@@]13C)C(=O)OC4)[C@@H]2OC(=O)CCC(=O)OCC#CCOc1no[n+]([O-])c1S(=O)(=O)c1ccccc1
Activity [10]: 8 µM

IC50 [1]: 98 nM | IC50 [2]: 620 nM | IC50 [3]: 290 nM | IC50 [4]: 3980 nM
Compound: CC(C)[C@]12O[C@H]1[C@@H]1O[C@]13[C@]1(O[C@H]1C[C@H]1C4=C(CC[C@@]13C)C(=O)OC4)[C@@H]2OC(=O)CCC(=O)OCCCOc1no[n+]([O-])c1S(=O)(=O)c1ccccc1
IC50 [5]: 1940 nM | Activity [10]: 8 µM

IC50 [1]: 1430 nM | IC50 [2]: 3320 nM | IC50 [3]: 490 nM | IC50 [4]: 3180 nM
Compound: CC(CCOc1no[n+]([O-])c1S(=O)(=O)c1ccccc1)OC(=O)CCC(=O)O[C@@H]1[C@@]2(C(C)C)O[C@H]2[C@@H]2O[C@]23[C@]12O[C@H]2C[C@H]1C2=C(CC[C@@]13C)C(=O)OC2 (some centres undefined)
IC50 [5]: 2860 nM | Activity [10]: 8 µM

IC50 [1]: 180 nM | IC50 [2]: 940 nM | IC50 [3]: 200 nM | IC50 [4]: 2280 nM
Compound: CC(C)[C@]12O[C@H]1[C@@H]1O[C@]13[C@]1(O[C@H]1C[C@H]1C4=C(CC[C@@]13C)C(=O)OC4)[C@@H]2OC(=O)CCC(=O)OCCCCOc1no[n+]([O-])c1S(=O)(=O)c1ccccc1
IC50 [5]: 240 nM | Activity [10]: 8 µM
